Here are results for one molecule from patent publication US20220274980A1, “PHARMACOLOGICAL INHIBITORS OF THE ENL YEATS DOMAIN” (priority 2019, published 2022).

One test concerns the target T1, BRD4 bromodomain 1 (BD1) (Homo sapiens, UniProt O60885).
T1 construct: Selectivity against BRD4 bromodomain 1 (BD1), measured by HTRF; His; purchased Cayman 11720
Kind of test: BRD4 (BD1)-H4 tetra-acetylated HTRF histone-binding assay. The gist of the method: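 Recombinant BRD4 BD1 (10 nM) was combined with 13.3 nM biotinylated tetra-acetylated H4 peptide, Eu-anti-His antibody and APC-streptavidin in HEPES buffer, pH 7. Compound was pin-transferred and plates incubated ≥2 h before HTRF reading (665/620 nm ratio). Percent inhibition was normalised to vehicle (maximum) and no-peptide (minimum) wells.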
(TR-FRET usually uses a lanthanide donor and a delayed reading to cut background.)

Test [1] relates to ENL target gene expression (MYC, HOXA9). Nature of the test: qRT-PCR of ENL target gene expression. Format: cell-based. The text has this: Quantitative reverse-transcriptase PCR (qRT-PCR). […] The ddCt method was used to quantify fold change differences in gene expression between control and treated samples (using expression of B2M for normalization).
A general note: Quantitative PCR measures a nucleic acid by following its amplification.

In general, IC50 refers to the concentration at which inhibition is half-maximal. Read a low IC50 as greater potency.

Some results are limits rather than exact numbers.

As to `O=C(NC1CCC1)c1ccc2nc(-c3cccc(NS(=O)(=O)NCCN4CCCCC4)c3)cn2c1` [Compound 93], the IC50 at BRD4 bromodomain 1 (BD1) (Table 1) and at BRD4 bromodomain 1 (BD1) (Table 2) was above 50 µM throughout. Also, in test [1], the “suppression of ENL target gene expression” value is on record as “Suppression of ENL target gene expression”.
